# Experimental data reported in the Bradley open melting point set (2014).
row,Compound,melting point
1,CCS(=O)(=O)c1ccc(B(O)O)cc1 [4-(ethylsulfonyl)benzeneboronic acid],137 °C
2,CCSc1ccc(B(O)O)cc1 [4-(ethylthio)benzeneboronic acid],105 °C
3,CSc1ccc(CC(=O)O)cc1 [4-(methylthio)phenylacetic acid],100 °C
4,Nc1ccc(Br)cc1 [4-Bromoaniline],66 °C
5,"Cc1cc(O)cc(C)c1Cl [4-Chloro-3,5-dimethylphenol]",115 °C
6,CCOc1ccc(N)cc1 [4-Ethoxyaniline],3 °C
7,N#Cc1ccc(O)cc1 [4-Hydroxybenzonitrile],112 °C
8,CC(C)Oc1ccc(Nc2ccccc2)cc1 [4-Isopropoxy-N-phenylaniline],79 °C
9,Cc1ccc(C(=O)O)cc1 [4-Methylbenzoic acid] [listing 1 of 2 here],181 °C
10,Cc1ccc(C(=O)O)cc1 [4-Methylbenzoic acid] [listing 2 of 2 here],180 °C
11,O=C(O)c1ccc([N+](=O)[O-])cc1 [4-Nitrobenzoic acid],240 °C
12,CC(=O)Nc1ccc(C=O)cc1 [4-acetamidobenzaldehyde],160 °C
13,CC(=O)Oc1ccc(C(=O)O)cc1 [4-acetoxybenzoic acid],194 °C
14,CC(=O)Oc1ccc(C(=O)O)cc1 [4-acetoxybenzoic_acid],194 °C
15,CC(=O)Oc1ccc(-c2ccccc2)cc1 [4-acetoxybiphenyl],88 °C
16,"Nn1cnnc1 [4-amino-1,2,4-triazole]",86 °C
17,Cc1c(N)c(=O)n(-c2ccccc2)n1C [4-aminoantipyrine],108 °C
18,NNC(=O)c1ccc(N)cc1 [4-aminobenzhydrazide],228 °C
19,N#CCc1ccc(N)cc1 [4-aminobenzyl_cyanide],45 °C
20,N#CCc1ccc(N)cc1 [4-aminophenylacetonitrile],44 °C
21,O=C(c1ccccc1)c1ccc(-c2ccccc2)cc1 [4-benzoylbiphenyl],101 °C
22,Cc1ccc(Cc2ccccc2)cc1 [4-benzyltoluene],5 °C

row,Compound,melting point
1,Oc1ccc(Br)cc1-c1ccno1 [4-bromo-2-(5-isoxazolyl)phenol],211 °C
2,OB(O)c1ccc(Br)cc1F [4-bromo-2-fluorobenzeneboronic acid],240 °C
3,Cc1cc(N)ccc1Br [4-bromo-3-methylaniline],81 °C
4,Nc1ccc(Br)cc1 [4-bromoaniline],63 °C
5,COc1ccc(Br)cc1 [4-bromoanisole],11 °C
6,ClCc1ccc(Br)cc1 [4-bromobenzyl chloride],40 °C
7,Sc1ccc(Br)cc1 [4-bromothiophenol],75 °C
8,Oc1ccc(Cl)cc1-c1ccno1 [4-chloro-2-(5-isoxazolyl)phenol],202 °C
9,Cc1ccc(Cl)cc1[N+](=O)[O-] [4-chloro-2-nitrotoluene],39 °C
10,Cc1ccc(Cl)c([N+](=O)[O-])c1 [4-chloro-3-nitrotoluene],7 °C
11,Nc1ccc(Cl)cc1N [4-chloro-o-phenylenediamine],72 °C
12,ClCc1ccc(Cl)cc1 [4-chlorobenzyl_chloride],30 °C
13,C=Cc1ccc(Cl)cc1 [4-chlorostyrene],-16 °C
14,Sc1ccc(Cl)cc1 [4-chlorothiophenol],50 °C
15,CCCCCc1ccc(-c2ccc(C#N)cc2)cc1 [4-cyano-4'-n-pentylbiphenyl],23 °C
16,N#Cc1ccncc1 [4-cyanopyridine],78 °C
17,CCOc1ccc(B(O)O)cc1 [4-ethoxybenzeneboronic acid],167 °C
18,CCc1ccc(C)cc1 [4-ethyltoluene],-62 °C
19,O=Cc1cc(B(O)O)ccc1F [4-fluoro-3-formylbenzeneboronic acid],240 °C
20,Cc1cc(B(O)O)ccc1F [4-fluoro-3-methylbenzeneboronic acid],210 °C
21,O=C(O)c1ccc(F)cc1 [4-fluorobenzoic acid] [listing 2 of 2 here],185 °C
22,O=C(O)/C=C/c1ccc(F)cc1 [4-fluorocinnamic acid],209 °C

# More lines, now with the values ahead:
row,melting point,Compound
1,107 °C,Cc1c(N(C)C)c(=O)n(-c2ccccc2)n1C [4-(dimethylamino)antipyrine]
2,139 °C,CCOC(=O)c1ccc(B(O)O)cc1 [4-(ethoxycarbonyl)benzeneboronic acid]
3,54 °C,CCOC(=O)c1ccc(N=C=S)cc1 [4-(ethoxycarbonyl)phenyl isothiocyanate]
4,280 °C,OCc1ccc(B(O)O)cc1 [4-(hydroxymethyl)benzeneboronic acid]
5,170 °C,CS(=O)c1ccc(B(O)O)cc1 (configuration not stated) [4-(methylsulfinyl)benzeneboronic acid]
6,273 °C,CS(=O)(=O)c1ccc(C(=O)O)cc1 [4-(methylsulfonyl)benzoic acid]
7,102 °C,O=S(=O)(Cl)c1cc(S(=O)(=O)c2ccccc2)cs1 [4-(phenylsulfonyl)thiophene-2-sulfonyl chloride]
8,178 °C,O=C(O)c1ccc(C(=O)C(F)(F)F)cc1 [4-(trifluoroacetyl)benzoic acid]
9,-9 °C,C=CCc1ccc(O)c(OC)c1 [4-Allyl-2-methoxyphenol]
10,202 °C,"Nc1ccc(S(=O)(=O)Nc2nccs2)cc1 [4-Amino-N-(1,3-thiazol-2-yl)benzenesulfonamide]"
11,192 °C,Nc1ccc(S(=O)(=O)Nc2ccccn2)cc1 [4-Amino-N-(pyridin-2-yl)benzenesulfonamide]
12,-63 °C,CCN1CCOCC1 [4-Ethylmorpholine]
13,45.5 °C,Oc1ccc(F)cc1 [4-Fluorophenol]
14,216 °C,O=C(O)c1ccc(O)cc1 [4-Hydroxybenzoic acid]
15,-55 °C,"CC1COC(=O)O1 (configuration not stated) [4-Methyl-1,3-dioxolan-2-one]"
16,29 °C,Cc1ccc(C#N)cc1 [4-Methylbenzonitrile]
17,154 °C,Cc1ccn[nH]c1=O [4-Methylpyridazin-3(2H)-one]
18,202 °C,NC(=O)c1ccc([N+](=O)[O-])cc1 [4-Nitrobenzamide]
19,75 °C,O=C(Cl)c1ccc([N+](=O)[O-])cc1 [4-Nitrobenzoyl chloride]
20,139 °C,Nc1ccc(C=C/C(=N/O)c2ccccc2)cc1 [4-[(3Z)-3-(hydroxyimino)-3-phenylprop-1-en-1-yl]aniline]

row,melting point,Compound
1,169 °C,CC(=O)Nc1ccc(O)cc1 [4-acetamidophenol]
2,129 °C,Nc1ccc(O)c([N+](=O)[O-])c1 [4-amino-2-nitrophenol]
3,188 °C,Nc1ccc(C(=O)O)cc1 [4-aminobenzoic acid] [listing 1 of 2 here]
4,188 °C,Nc1ccc(C(=O)O)cc1 [4-aminobenzoic acid] [listing 2 of 2 here]
5,61 °C,Nc1ccc(CO)cc1 [4-aminobenzyl alcohol]
6,130 °C,OB(O)c1ccc(OCc2ccccc2)c(F)c1 [4-benzyloxy-3-fluorobenzeneboronic acid]
7,36 °C,N#CCc1ccc(Cc2ccccc2)cc1 [4-benzylphenylacetonitrile]
8,64 °C,"Nc1c(F)cc(Br)cc1F [4-bromo-2,6-difluoroaniline]"
9,80 °C,"Cc1cc(Br)cc(C)c1N=C=S [4-bromo-2,6-dimethylphenyl isothiocyanate]"
10,162 °C,Oc1ccc(Br)cc1-c1cc[nH]n1 [4-bromo-2-(1h-pyrazol-3-yl)phenol]
11,56 °C,O=S(=O)(Cl)c1ccc(Br)cc1C(F)(F)F [4-bromo-2-(trifluoromethyl)benzenesulfonyl chloride]
12,39 °C,Cc1cc(Br)cc(Cl)c1N [4-bromo-2-chloro-6-methylaniline]
13,284 °C,OB(O)c1ccc(Br)cc1 [4-bromobenzeneboronic acid]
14,256 °C,O=C(O)c1ccc(Br)cc1 [4-bromobenzoic acid]
15,78 °C,OCc1ccc(Br)cc1 [4-bromobenzyl alcohol]
16,28 °C,Cc1ccc(Br)cc1 [4-bromotoluene]
17,122 °C,O=S(=O)(Nc1ccc(Cl)cc1)c1ccccc1 [4-chloro-1-phenylsulfonamidobenzene]
18,92 °C,"Cc1cc(Cl)c(C)cc1N [4-chloro-2,5-dimethylaniline]"
19,25 °C,Cc1cc(Cl)c2ccccc2n1 [4-chloro-2-methylquinoline]
20,115 °C,"Cc1cc(O)cc(C)c1Cl [4-chloro-3,5-dimethylphenol]"

row,melting point,Compound
1,240 °C,Cc1cc(B(O)O)ccc1Cl [4-chloro-3-methylbenzeneboronic acid]
2,52 °C,O=S(=O)(Cl)c1ccc(Cl)cc1 [4-chlorobenzenesulfonyl chloride]
3,76 °C,O=C(c1ccccc1)c1ccc(Cl)cc1 [4-chlorobenzophenone]
4,20 °C,SCc1ccc(Cl)cc1 [4-chlorobenzyl mercaptan]
5,38 °C,O=C1CCOc2ccccc21 [4-chromanone]
6,68 °C,CCCCc1ccc(C(=O)Oc2ccc(C#N)cc2)cc1 [4-cyanophenyl 4-n-butylbenzoate]
7,102 °C,CCCc1ccc(C(=O)Oc2ccc(C#N)cc2)cc1 [4-cyanophenyl 4-n-propylbenzoate]
8,145 °C,CN(C)c1ccc(C(=O)Cl)cc1 [4-dimethylaminobenzoyl chloride]
9,67 °C,CN(C)c1ccc(N=C=S)cc1 [4-dimethylaminophenyl isothiocyanate]
10,59 °C,CCOc1ccc(N=C=S)cc1 [4-ethoxyphenyl isothiocyanate]
11,-63 °C,CCN1CCOCC1 [4-ethylmorpholine]
12,200 °C,Cc1cc(F)ccc1B(O)O [4-fluoro-2-methylbenzeneboronic acid]
13,34 °C,Cc1cc(F)ccc1O [4-fluoro-2-methylphenol]
14,92 °C,Nc1ccc(F)cc1[N+](=O)[O-] [4-fluoro-2-nitroaniline]
15,185 °C,O=C(O)c1ccc(F)cc1 [4-fluorobenzoic acid] [listing 1 of 2 here]
16,46.5 °C,Oc1ccc(F)cc1 [4-fluorophenol] [listing 1 of 2 here]
17,46 °C,Oc1ccc(F)cc1 [4-fluorophenol] [listing 2 of 2 here]
18,-33 °C,CCCC(=O)CCC [4-heptanone]
